Results: patent US20220193081A1 (Ellamed IP & Services PTE. LTD., priority 2019, published 2022)
Marks after values point to notes of the source that are not given here.

What was measured:
Assay type in all cases: physicochemical
[1] = Maximum dissolution study in 50% aqueous ethanol, HPLC assay (Example 5); conditions: added until precipitation occurred, pH 5.5, NaOH
Protocol: Before being placed on storage, and at time points 7, 42 days and 2 months, the concentration of sildenafil in the mixtures were assayed using HPLC. The samples were then stored at either −20° C., 2-8° C. or 25° C. for periods of up to 2 months. Periodically, the samples were visually inspected for evidence of crystallization.

[2] = Visual inspection on storage of sildenafil citrate with equal concentration of sucralose in pH adjusted 50% ethanol (Example 2)
Protocol: (§1) At room temperature, a phosphate buffer was prepared by weighing 3.9 g of NaH2PO4.2H2O into a 500 mL volumetric flask and adding approximately 300 mL of purified water until the phosphate fully dissolved. The pH was then adjusted to 7 with the introduction of NaOH and dilute to the requisite volume by the further addition of purified water.
(§2) A 50% ethanol mixture was prepared by introducing either purified water, taken from a MilliQ™ unit or phosphate buffer, to equivalent volumes of Ph.Eur. grade absolute alcohol. The pH of the resultant mixture was then adjusted by using either NaOH 1N solutions and/or Sodium Citrate 1N solutions to reach predetermined pH values.
(§3) Samples of sucralose were then dissolved in the pH adjusted 50% ethanol, whilst stirred with a magnetic stirrer and a needle, to a predetermined concentration. […] After preparation, the solutions were each filtered through PDVF 0.22 micro filter of 13 mm in size and placed in polypropylene containers of adequate volume.
(§4) Before being placed on storage, and at time points 7 and 42 days, the concentration of sildenafil in the mixture was assayed using HPLC. The samples were then stored at either −20° C., 2-8° C. or 25° C. for periods of up to 42 days. Periodically, the samples were visually inspected for evidence of precipitation or crystallization. […]

[3] = HPLC assay on storage of sildenafil citrate with equal concentration of sucralose in pH adjusted 50% ethanol (Example 2); conditions: 15 mg/ml
Protocol: as §1, §2, §3, §4
The samples of 21 mg/ml at a pH of 5.6 were maintained in stability testing at 25° C. for a total of 285 days.

Compound: CCCc1nn(C)c2c(=O)nc(-c3cc(S(=O)(=O)N4CCN(C)CC4)ccc3OCC)[nH]c12.O=C(O)CC(O)(CC(=O)O)C(=O)O [sildenafil citrate, 1-[[3-(4,7-Dihydro-1-methyl-7-oxo-3-propyl-1H-pyrazolo[4,3-d]pyrimidin-5-yl)-4-ethoxyphenyl]sulfonyl]-4-methylpiperazine citrate salt]
- Day 0 concentration sildenafil ([1]; with sucralose (second sample)): 82.79* mg/ml
- Day 0 concentration sildenafil ([1]; with sucralose (third sample)): 123.95* mg/ml
- Day 0 concentration sildenafil ([1]; without sucralose (first sample)): 51.65 mg/mL
- visual inspection for precipitation or crystallization ([2]; 15 mg/ml, pH 5.0, Sodium Citrate, 2-8° C.): Prec.
- visual inspection for precipitation or crystallization ([2]; 15 mg/ml, pH 5.0, Sodium Citrate, 25° C.): Prec.
- visual inspection for precipitation or crystallization ([2]; 15 mg/ml, pH 5.0, Sodium Citrate, −20° C.): Prec.
- visual inspection for precipitation or crystallization ([2]; 15 mg/ml, pH 5.2, NaOH, −20° C.): Prec.
- visual inspection for precipitation or crystallization ([2]; 15 mg/ml, pH 6.01, NaOH, 50% ethanol/phosphate buffer, 2-8° C.): Prec.
- visual inspection for precipitation or crystallization ([2]; 15 mg/ml, pH 6.01, NaOH, 50% ethanol/phosphate buffer, −20° C.): Prec.
- visual inspection for precipitation or crystallization ([2]; 15 mg/ml, pH 6.2, NaOH, 2-8° C.): Prec.
- visual inspection for precipitation or crystallization ([2]; 15 mg/ml, pH 6.2, NaOH, 25° C.): Prec.
- visual inspection for precipitation or crystallization ([2]; 15 mg/ml, pH 6.2, NaOH, −20° C.): Prec.
- visual inspection for precipitation or crystallization ([2]; 15 mg/ml, pH 6.2, Sodium Citrate, 2-8° C.): Prec.
- visual inspection for precipitation or crystallization ([2]; 15 mg/ml, pH 6.2, Sodium Citrate, −20° C.): Prec.
- visual inspection for precipitation or crystallization ([2]; 18 mg/ml, pH 5.2, NaOH, −20° C.): Prec.
- visual inspection for precipitation or crystallization ([2]; 18 mg/ml, pH 5.2, Sodium Citrate, −20° C.): Prec.
- visual inspection for precipitation or crystallization ([2]; 18 mg/ml, pH 6.0, NaOH, 50% ethanol/phosphate buffer, 2-8° C.): Prec.
- visual inspection for precipitation or crystallization ([2]; 18 mg/ml, pH 6.0, NaOH, 50% ethanol/phosphate buffer, −20° C.): Prec.
- visual inspection for precipitation or crystallization ([2]; 18 mg/ml, pH 6.0, Sodium Citrate, 2-8° C.): Prec.
- visual inspection for precipitation or crystallization ([2]; 18 mg/ml, pH 6.0, Sodium Citrate, −20° C.): Prec.
- visual inspection for precipitation or crystallization ([2]; 18 mg/ml, pH 6.2, NaOH, 2-8° C.): Prec.
- visual inspection for precipitation or crystallization ([2]; 18 mg/ml, pH 6.2, NaOH, 25° C.): Prec.
- visual inspection for precipitation or crystallization ([2]; 18 mg/ml, pH 6.2, NaOH, −20° C.): Prec.
- visual inspection for precipitation or crystallization ([2]; 21 mg/ml, pH 5.29, NaOH, 50% ethanol/phosphate buffer, −20° C.): Prec.
- visual inspection for precipitation or crystallization ([2]; 21 mg/ml, pH 5.5, NaOH, −20° C.): Prec.
- visual inspection for precipitation or crystallization ([2]; 21 mg/ml, pH 5.5, Sodium Citrate, −20° C.): Prec.
- visual inspection for precipitation or crystallization ([2]; 21 mg/ml, pH 5.6, NaOH, 50% ethanol/phosphate buffer, 2-8° C.): Prec.
- visual inspection for precipitation or crystallization ([2]; 21 mg/ml, pH 5.6, NaOH, 50% ethanol/phosphate buffer, −20° C.): Prec.
- visual inspection for precipitation or crystallization ([2]; 21 mg/ml, pH 5.8, NaOH, 2-8° C.): Prec.
- visual inspection for precipitation or crystallization ([2]; 21 mg/ml, pH 6.01, NaOH, 50% ethanol/phosphate buffer, 2-8° C.): Prec.
- visual inspection for precipitation or crystallization ([2]; 21 mg/ml, pH 6.01, NaOH, 50% ethanol/phosphate buffer, −20° C.): Prec.
- concentration of sildenafil by HPLC ([3]; pH 5.0, Sodium Citrate, 2-8 ° C., Day 7): 11050 µg/mL
- concentration of sildenafil by HPLC ([3]; pH 5.0, Sodium Citrate, 25 ° C., Day 7): 14890 µg/mL
- concentration of sildenafil by HPLC ([3]; pH 5.0, Sodium Citrate, Day 0): 15220 µg/mL
- concentration of sildenafil by HPLC ([3]; pH 5.2, NaOH, 2-8 ° C., Day 7): 14990 µg/mL
- concentration of sildenafil by HPLC ([3]; pH 5.2, NaOH, 25 ° C., Day 7): 15010 µg/mL
- concentration of sildenafil by HPLC ([3]; pH 5.2, NaOH, Day 0): 15050 µg/mL
- concentration of sildenafil by HPLC ([3]; pH 5.24, NaOH, 50% ethanol/phosphate buffer, 2-8 ° C., Day 7): 14970 µg/mL
- concentration of sildenafil by HPLC ([3]; pH 5.24, NaOH, 50% ethanol/phosphate buffer, 25 ° C., Day 7): 15010 µg/mL
- concentration of sildenafil by HPLC ([3]; pH 5.24, NaOH, 50% ethanol/phosphate buffer, Day 0): 15060 µg/mL
- concentration of sildenafil by HPLC ([3]; pH 5.6, NaOH, 2-8 ° C., Day 7): 15030 µg/mL
- concentration of sildenafil by HPLC ([3]; pH 5.6, NaOH, 2-8 ° C., Day 42): 15050 µg/mL
- concentration of sildenafil by HPLC ([3]; pH 5.6, NaOH, 25 ° C., Day 7): 14930 µg/mL
- concentration of sildenafil by HPLC ([3]; pH 5.6, NaOH, 25 ° C., Day 42): 14970 µg/mL
- concentration of sildenafil by HPLC ([3]; pH 5.6, NaOH, 50% ethanol/phosphate buffer, 2-8 ° C., Day 7): 14920 µg/mL
- concentration of sildenafil by HPLC ([3]; pH 5.6, NaOH, 50% ethanol/phosphate buffer, 25 ° C., Day 7): 14940 µg/mL
- concentration of sildenafil by HPLC ([3]; pH 5.6, NaOH, 50% ethanol/phosphate buffer, Day 0): 14960 µg/mL
- concentration of sildenafil by HPLC ([3]; pH 5.6, NaOH, Day 0): 15140 µg/mL
- concentration of sildenafil by HPLC ([3]; pH 5.6, Sodium Citrate, 2-8 ° C., Day 7): 14800 µg/mL
- concentration of sildenafil by HPLC ([3]; pH 5.6, Sodium Citrate, 2-8 ° C., Day 42): 15040 µg/mL
- concentration of sildenafil by HPLC ([3]; pH 5.6, Sodium Citrate, 25 ° C., Day 7): 14790 µg/mL
- concentration of sildenafil by HPLC ([3]; pH 5.6, Sodium Citrate, 25 ° C., Day 42): 14880 µg/mL
- concentration of sildenafil by HPLC ([3]; pH 5.6, Sodium Citrate, Day 0): 14920 µg/mL
- concentration of sildenafil by HPLC ([3]; pH 6.01, NaOH, 50% ethanol/phosphate buffer, 2-8 ° C., Day 7): 14690 µg/mL
- concentration of sildenafil by HPLC ([3]; pH 6.01, NaOH, 50% ethanol/phosphate buffer, 25 ° C., Day 7): 14830 µg/mL
- concentration of sildenafil by HPLC ([3]; pH 6.01, NaOH, 50% ethanol/phosphate buffer, Day 0): 14830 µg/mL
- concentration of sildenafil by HPLC ([3]; pH 6.2, NaOH, 2-8 ° C., Day 7): 10420 µg/mL
- concentration of sildenafil by HPLC ([3]; pH 6.2, NaOH, 25 ° C., Day 7): 11750 µg/mL
- concentration of sildenafil by HPLC ([3]; pH 6.2, NaOH, Day 0): 15140 µg/mL
- concentration of sildenafil by HPLC ([3]; pH 6.2, Sodium Citrate, 2-8 ° C., Day 7): 11110 µg/mL
- concentration of sildenafil by HPLC ([3]; pH 6.2, Sodium Citrate, 25 ° C., Day 7): 12100 µg/mL
